Results as given in US10125095B2, “Abscisic acid derivative” (NATIONAL UNIVERSITY CORPORATION SHIZUOKA UNIVERSITY, priority 2014, dated 2018).

Assays:
[1] = system: seeds of thale cress (Arabidopsis thaliana, Col-0); test: Thale cress seed germination test; type: in vivo
Description: Seeds of thale cress (Arabidopsis thaliana, Col-0) were immersed in 500 μL of an aqueous solution of 70% ethanol for 30 minutes, subsequently in 500 μL of a 100% ethanol solution for 1 minute, washed five times in 1 mL of distilled water, then immersed in distilled water and, in a dark place, vernalized at 4° C. for 3 days. A solution of the sample in methanol was put in a 1.5 mL-microtube, and methanol was removed therefrom under reduced pressure. An aqueous solution of 0.5% agar (containing ½ MS medium inorganic salts) at 70° C. was added thereto and stirred, and subsequently the obtained mixture was placed in a 96-well plate to prepare the medium containing the sample. All samples were prepared so as to have a concentration of 3 μM of the compound in Examples 1 to 9 and Comparative Example 1. Further, when ABA is applied, the ABA concentration was adjusted to 0.3 μM. 20 to 30 vernalized seeds of thale cress were planted in each well and cultured at 22° C. under continuous light to monitor the number of seeds germinated over time. The germination rate was calculated by the following formula (1). Note that those cultured in medium prepared using methanol in the same manner were used as controls. […] Germination rate (%)=Number of seeds germinated/Number of seeds planted×100 (1)
The same test was carried out as in Test Example 1 with the concentrations of the compound of Example 1 for treatment varying from 0.3 μM to 30 μM.
Similarly, the same test was carried out with the concentrations of the compound of Example 2 for treatment varying from 0.3 μM to 30 μM.
The same test was carried out as in Test Example 2 with the concentrations of the compounds for treatment varying from 0.3 μM to 3 μM to compare the recovery effects on seed germination rate of the compound of Example 1 and the compound of Comparative Example 1.

recombined PYL5 = biological target: T1, recombined PYL5 (Arabidopsis thaliana, UniProt Q9FLB1); test: Bonding affinity measurement using an isothermal titration calorimeter; type: binding, thale cress; conditions: ITC, 20° C., sodium phosphate buffer
T1 construct: 6xHis (N); made in house; host or cells: Escherichia coli BL21-codonplus(DE3)-RIPL
T1 sequence (Q9FLB1 1-203): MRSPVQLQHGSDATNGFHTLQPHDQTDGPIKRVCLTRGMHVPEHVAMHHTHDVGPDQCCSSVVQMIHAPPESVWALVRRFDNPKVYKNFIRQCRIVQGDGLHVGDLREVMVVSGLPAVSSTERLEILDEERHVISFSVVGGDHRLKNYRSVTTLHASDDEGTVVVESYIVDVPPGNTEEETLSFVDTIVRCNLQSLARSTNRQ
Description: A sodium phosphate buffer solution of a recombined PYL5 was prepared in the same procedure as in Test Example 5, and put in a reaction cell of an isothermal titration calorimeter (GE Healthcare, MicroCal iTC200), and a sodium phosphate buffer solution of the compound of Example 1 was put in the syringe. Then, the calorimeter was set to 20° C. and the measurement was carded out. The same measurement as above was also carried out for the compounds of Examples 7 to 9.

[2] = system: thale cress (Arabidopsis thaliana, Col-0) seedlings; test: Thale cress growth test; type: in vivo; conditions: 50 μM compound co-applied with 5 μM ABA, sprayed once a day; three weeks' culture
Description: Seeds of thale cress (Arabidopsis thaliana, Col-0) were sequentially immersed for 1 minute respectively in 500 μL of an aqueous solution of 5% bleach+1% SDS, 500 μL of a 70% aqueous solution of ethanol and 500 μL of a 70% aqueous solution of ethanol, washed five times in 1 mL of sterilized water, and then suspended in a 0.1% aqueous solution of agar. 25 mL each of germination medium (containing ½ MS medium inorganic salts) sterilized in an autoclave was added to a sterilized plastic petri dish, in which 60 to 80 seeds suspended in the 0.1% aqueous solution of agar were planted and, in a dark place, the seeds were vernilized at 4° C. for 3 days. The seeds were cultured at 22° C. under continuous light for 10 days. 40 g […] of sterilized soil (organic culture soil:vermiculite=1:1) was added to a plastic pot (50 mm×50 mm×50 mm, 35 mm bottom surface×35 mm height). Six plastic pots thus provided were placed in a 3000 mL-tray, 300 mL (depth 10 mm) of an aqueous solution of 1000-fold diluted HYPONeX (tradename (registered trademark), product of HYPONeX JAPAN CORP., LTD.) was added thereto and five roots each of thale cress seedlings were transplanted from the plastic petri dish. The seedlings were cultured at 22° C. under conditions of 16 hour light period-8 hour dark period, and 1 mL of an aqueous solution (prepared so as the final concentration of the compound of Example 7 to be 50 μM) of 0.1% DMSO (containing the compound of Example 7)+0.1% Approach BI (tradename (registered trademark), product of Kao Corporation) was sprayed once a day. Further, 300 mL of an aqueous solution of 2000-fold diluted HYPONeX was added every week. The same treatment as above was carried out using the compound of Comparative Example 1. Note that the seedlings, to which 1 mL of an aqueous solution of 0.1% DMSO+0.1% Approach BI without containing the above compound was sprayed once a day, were used as controls. […]

[3] = system: lettuce (Lactuca saliva) seeds; test: Lettuce seed germination test; type: in vivo; conditions: co-applied with ABA
[4] = system: bok choy (Brassica rapa var. chinensis) seeds; test: Bok choy seed germination test; type: in vivo; conditions: co-applied with ABA
[5] = 3 μM compound co-applied with 0.3 μM ABA

Compound | Germination rate (%) 24 Hours later [1, 5] | Germination rate (%) 36 Hours later [1, 5] | Germination rate (%) 48 Hours later [1, 5] | Germination rate (%) 60 Hours later [1, 5] | Germination rate (%) 24 Hours later ([1]; compound alone, 3 μM) | Germination rate (%) 36 Hours later ([1]; compound alone, 3 μM) | Germination rate (%) 48 Hours later ([1]; compound alone, 3 μM) | Germination rate (%) 60 Hours later ([1]; compound alone, 3 μM) | Kd (recombined PYL5) | ΔG (recombined PYL5) | ΔH (recombined PYL5) | −TΔS (recombined PYL5) | Growth suppression effect of ABA on thale cress [2] | Recovery of seed germination rate decreased by ABA [3] | Recovery of seed germination rate decreased by ABA ([1]; compound 0.3 μM to 30 μM co-applied with ABA) | Recovery of seed germination rate decreased by ABA [4]
CCCCCCSC1=C(C)[C@](O)(/C=C/C(C)=C\C(=O)O)C(C)(C)CC1=O [Comparative Example 1, 3′-hexylsulfanyl-abscisic acid, reference compound] | 0% | 28% | 67% | 89% | 0% | 85% | 100% | 100% | 480 ± 100 nM | -9.6 ± 0.1 kcal/mol | -9.7 ± 0.2 kcal/mol | 1.2 kcal/mol | the growth suppression effect of ABA was not substantially improved |  |  | 
CC1=C[C@@H](OCC#Cc2cccc3ccccc23)CC(C)(C)[C@@]1(O)/C=C/C(C)=C\C(=O)O [Example 2] | 9% | 22% | 53% | 89% | 11% | 27% | 77% | 100% |  |  |  |  |  | recovered the seed germination rates once decreased by ABA | seed germination rates decreased by ABA are recovered | recovered the seed germination rates once decreased by ABA
